Source: the NIST ThermoML archive (doi:10.1016/j.tca.2009.12.001)

Legend:
[1] = mn = molality of the nth substance listed, in mol/kg; settings: 303.15 K, 101 kPa, Liquid, Linear variable-path acoustic interferometer
[2] = cn = amount concentration of the nth substance listed, in mol/dm3; settings: 101 kPa, Liquid; for viscosity: Capillary tube (Ostwald / Ubbelohde) method; for mass density: Pycnometric method
[3] = refractive index (Na D-line) (dimensionless); mn = molality of the nth substance listed, in mol/kg; settings: 303.15 K, 101 kPa, Liquid, Standard Abbe refractometry
[4] = wn = mass fraction of the nth substance listed; settings: 101 kPa, Liquid; for viscosity: Capillary tube (Ostwald / Ubbelohde) method; for speed of sound: Linear variable-path acoustic interferometer; for mass density: Pycnometric method
[5] = refractive index (Na D-line) (dimensionless); wn = mass fraction of the nth substance listed; settings: 303.15 K, 101 kPa, Liquid, Standard Abbe refractometry
[6] = 101 kPa, Liquid; for viscosity: Capillary tube (Ostwald / Ubbelohde) method; for mass density: Pycnometric method
[7] = refractive index (Na D-line) (dimensionless); settings: 303.15 K; 101.33 kPa; Liquid; Standard Abbe refractometry

CC(C)[C@@H]1CC[C@@H](C)C[C@H]1O [DL-menthol] + CC(C)O
Settings | refractive index, [3] | speed of sound, [1] [m/s]
m1 = 0.0323 | 1.3741 | 1135.7
m1 = 0.0453 | 1.3744 | 1138.2
m1 = 0.0584 | 1.3747 | 1141.2
m1 = 0.0715 | 1.375 | 1144.4
m1 = 0.0978 | 1.3755 | 1151.1
m1 = 0.111 | 1.3757 | 1154.2

[2]
Settings | mass density [kg/m3] | viscosity [mPa·s]
303.15 K, c1 = 0.025 | 777.6 | 1.757
303.15 K, c1 = 0.035 | 777.8 | 1.761
303.15 K, c1 = 0.045 | 778 | 1.766
303.15 K, c1 = 0.055 | 778.3 | 1.771
303.15 K, c1 = 0.075 | 778.8 | 1.781
303.15 K, c1 = 0.085 | 779.1 | 1.785
313.15 K, c1 = 0.0247 | 768.8 | 1.34
313.15 K, c1 = 0.0346 | 769 | 1.344
313.15 K, c1 = 0.0445 | 769.2 | 1.349
313.15 K, c1 = 0.0544 | 769.5 | 1.355
313.15 K, c1 = 0.0742 | 770 | 1.364
313.15 K, c1 = 0.084 | 770.3 | 1.368
323.15 K, c1 = 0.0243 | 756.4 | 1.012
323.15 K, c1 = 0.034 | 756.6 | 1.017
323.15 K, c1 = 0.0438 | 756.8 | 1.022
323.15 K, c1 = 0.0535 | 757.1 | 1.026
323.15 K, c1 = 0.073 | 757.7 | 1.034
323.15 K, c1 = 0.0827 | 758 | 1.039

COC(=O)c1ccccc1O [methyl 2-hydroxybenzoate] + CC(C)O
[4]
Settings | mass density, 303.15 K [kg/m3] | mass density, 313.15 K [kg/m3] | mass density, 323.15 K [kg/m3] | speed of sound, 303.15 K [m/s] | viscosity, 303.15 K [mPa·s] | viscosity, 313.15 K [mPa·s] | viscosity, 323.15 K [mPa·s]
w1 = 0.05 | 790.9 | 782.8 | 770.3 | 1146.8 | 1.798 | 1.379 | 1.048
w1 = 0.1 | 805.3 | 794.3 | 785.1 | 1170.6 | 1.846 | 1.437 | 1.103
w1 = 0.15 | 822.4 | 812 | 799.3 | 1197.7 | 1.961 | 1.56 | 1.227

[5]
Settings | refractive index
w1 = 0.05 | 1.3791
w1 = 0.1 | 1.3852
w1 = 0.15 | 1.3912

CC(C)O [propan-2-ol]
[6]
Settings | mass density [kg/m3] | viscosity [mPa·s]
303.15 K | 777.1 | 1.747
313.15 K | 768.4 | 1.33
323.15 K | 756 | 1.003

Settings | speed of sound [m/s]
[6], 303.15 K, Linear variable-path acoustic interferometer | 1130.6

Settings | refractive index
[7] | 1.3736

CC(C)O [propan-2-ol] + COC(=O)c1ccccc1O
[4], w2 = 0
Settings | mass density [kg/m3] | speed of sound [m/s] | viscosity [mPa·s]
303.15 K | 777.1 | 1130.6 | 1.747
313.15 K | 768.4 | – | 1.33
323.15 K | 756 | – | 1.003

Settings | refractive index
[5], w2 = 0 | 1.3736
